{"source": "paper PMC6130841", "about": "(Science translational medicine, 2018)", "key": {"[1]": {"conditions": "cited from earlier work"}, "[2]": {"test_system": "U2OS p21-MS2 cells", "assay": "Live-cell imaging of p21-MS2 transcription sites", "conditions": "5 μM, 4 hours after addition; 54 treated cells; untreated 16%"}, "[3]": {"test_system": "HL60 (p53 null)", "assay": "Proliferation and apoptosis in HL60", "type": "cell-based, human"}, "[4]": {"test_system": "patient's MDS/AML cells", "assay": "In vitro treatment of the MDS/AML patient's cells", "type": "cell-based, human"}, "[5]": {"test_system": "primary AML cells", "assay": "Viability, CFC and apoptosis of primary AML patient cells", "type": "cell-based, human", "conditions": "AML n = 4 compared to healthy controls n = 3"}, "[6]": {"test_system": "SJSA-1 cells", "assay": "p21 protein ELISA in SJSA-1 cells", "type": "cell-based, human", "conditions": "21 hours after treatment, n = 2"}, "[7]": {"test_system": "AML cell lines", "assay": "Colony-forming capacity and serial replating of AML cell lines"}, "[8]": {"conditions": "clinical trials; cited from earlier work"}, "[9]": {"test_system": "leukemia cell lines with WT p53", "assay": "Cytotoxicity assay in leukemia cell lines with WT p53", "conditions": "five cell lines with WT p53; table S2"}, "[10]": {"test_system": "p53 WT AML cell lines", "assay": "Cell cycle", "type": "cell-based, human"}, "[11]": {"test_system": "p53 WT AML cells (primary AML cells, MOLM13)", "assay": "p53 pathway activation", "type": "cell-based, human"}, "[12]": {"test_system": "healthy hematopoietic cells", "assay": "Effects on healthy hematopoiesis in non-tumor-bearing C57/BL6 mice", "type": "in vivo, mouse", "conditions": "20 mg/kg TIW for 4 weeks"}, "[13]": {"test_system": "ML2 cells", "assay": "ML2 AML xenograft in mice", "type": "in vivo, mouse", "conditions": "vehicle 28.5"}, "[14]": {"test_system": "SJSA-1 cells", "assay": "Caspase-Glo 3/7 assay in SJSA-1 cells", "type": "cell-based, human", "conditions": "Caspase-Glo 3/7, 48 hours after treatment; n = 2"}, "[15]": {"test_system": "MOLM13 p53 shRNA knockdown cell lines", "assay": "Proliferation and apoptosis in isogenic p53 shRNA MOLM13 cell lines", "type": "cell-based, human", "conditions": "n = 3"}, "[16]": {"test_system": "MOLM13 cells", "assay": "MOLM13 AML xenograft in NSG mice", "type": "in vivo, mouse", "conditions": "for median survival: vehicle 34"}, "[17]": {"test_system": "Kasumi-1 (p53 R248Q mutant)"}, "[18]": {"test_system": "circulating CD34+ leukemic blasts", "assay": "Compassionate-use treatment of one MDS/AML patient", "type": "in vivo, human"}, "[19]": {"test_system": "p53 WT AML cell lines (MOLM13, MOLM14, ML2, OCI/AML3, OCI/AML5)", "assay": "Proliferation by trypan blue exclusion, p53 WT AML cell lines", "type": "cell-based, human"}, "[20]": {"test_system": "MDMX", "assay": "MDMX expression in AML cells", "conditions": "mRNA and protein levels"}, "[21]": {"test_system": "MDMX", "conditions": "cited from earlier work"}, "[22]": {"biological_target": "T1, MDMX (Homo sapiens, UniProt O15151)", "T1 sequence (O15151 1-490)": "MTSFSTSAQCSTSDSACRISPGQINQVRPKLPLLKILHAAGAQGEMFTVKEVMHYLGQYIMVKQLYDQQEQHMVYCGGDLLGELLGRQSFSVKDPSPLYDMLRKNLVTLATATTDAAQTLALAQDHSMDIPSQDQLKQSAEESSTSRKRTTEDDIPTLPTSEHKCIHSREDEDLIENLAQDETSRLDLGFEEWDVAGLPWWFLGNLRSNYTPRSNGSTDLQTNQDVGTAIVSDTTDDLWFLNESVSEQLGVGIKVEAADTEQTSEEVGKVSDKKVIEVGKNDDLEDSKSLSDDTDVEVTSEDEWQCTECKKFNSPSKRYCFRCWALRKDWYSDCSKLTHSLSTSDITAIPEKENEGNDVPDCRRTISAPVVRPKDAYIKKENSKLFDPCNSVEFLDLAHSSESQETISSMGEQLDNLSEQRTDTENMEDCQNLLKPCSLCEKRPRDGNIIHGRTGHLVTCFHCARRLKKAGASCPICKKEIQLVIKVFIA", "assay": "Binding assay on immobilized protein surface", "conditions": "n = 2"}, "[23]": {"biological_target": "MDM2 (Homo sapiens, UniProt Q00987)", "sequence (Q00987 whole entry)": "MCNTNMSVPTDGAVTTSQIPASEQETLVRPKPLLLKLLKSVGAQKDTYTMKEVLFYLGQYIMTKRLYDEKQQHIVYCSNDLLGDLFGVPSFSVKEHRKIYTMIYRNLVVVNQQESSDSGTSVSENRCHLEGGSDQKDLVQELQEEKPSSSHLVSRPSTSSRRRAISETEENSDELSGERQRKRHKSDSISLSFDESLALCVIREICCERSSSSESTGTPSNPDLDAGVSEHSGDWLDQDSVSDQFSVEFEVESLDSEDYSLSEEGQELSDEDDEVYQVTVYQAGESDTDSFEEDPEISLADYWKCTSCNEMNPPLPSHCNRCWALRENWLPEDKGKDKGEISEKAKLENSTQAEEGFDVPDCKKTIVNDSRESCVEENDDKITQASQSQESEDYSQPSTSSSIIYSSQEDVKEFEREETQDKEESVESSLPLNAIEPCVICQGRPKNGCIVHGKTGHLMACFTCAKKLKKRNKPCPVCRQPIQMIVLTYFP", "assay": "Binding assay on immobilized protein surface", "conditions": "n = 2"}}, "note": "Where a SMILES comes first, the peptide text is derived from it. Bridges are numbered along the chain shown (N, C = ends). [ ]: non-standard residue; d: D form. R8 = C=CCCCCCC[C@@](C)(N)C(=O)O; S5 = C=CCCC[C@](C)(N)C(=O)O"}
{"smiles": "COc1ccc(C2=N[C@@H](c3ccc(Cl)cc3)[C@@H](c3ccc(Cl)cc3)N2C(=O)N2CCNC(=O)C2)c(OC(C)C)c1", "note": "[Nutlin-3]", "values": [{"measurement": "bioavailability", "setting": "[1]", "result": "poor bioavailability"}]}
{"smiles": "CC(=O)N[C@@H](CC(C)C)C(=O)N[C@H](C(=O)N[C@@H](Cc1ccccc1)C(=O)N[C@]1(C)CCCCCC/C=C\\CCC[C@@](C)(C(=O)N[C@@H](C)C(=O)N[C@@H](C)C(=O)N[C@@H](C)C(=O)N[C@@H](C)C(=O)N[C@@H](C)C(=O)N[C@H](C)C(N)=O)NC(=O)[C@H](CC(C)C)NC(=O)[C@H](CCC(N)=O)NC(=O)[C@H](C)NC(=O)[C@H](Cc2c[nH]c3ccccc23)NC(=O)[C@H](Cc2ccc(O)cc2)NC(=O)[C@H](CCC(=O)O)NC1=O)[C@@H](C)O", "note": "[ALRN-6924] (Ac-LTF[R8]EYWAQL[S5]AAAAA[dA]-NH2; staple (Z) 4-11; N-terminus and C-terminus assumed)", "values": [{"measurement": "proportion of cells harboring an active TS", "setting": "[2]", "result": "~ 44%"}, {"measurement": "cell proliferation", "setting": "[3]; HL60 (p53 null)", "result": "no effect on cell proliferation"}, {"measurement": "apoptosis", "setting": "[3]; HL60, doses between 5 and 10 μM", "result": "did not observe a significant increase in apoptosis"}, {"measurement": "AML-inhibitory effect versus RG7388", "setting": "[4]; 10 μM each", "result": "greater AML-inhibitory effect than RG7388"}, {"measurement": "cell proliferation and clonogenic capacity of the patient's MDS/AML cells", "setting": "[4]; 10 μM in liquid culture, CFC 10 days", "result": "inhibited cell proliferation and clonogenic capacity"}, {"measurement": "CFC of primary AML PBMCs", "setting": "[5]", "result": "inhibited CFC"}, {"measurement": "p21 protein", "setting": "[6]", "result": "concentration- dependent increase"}, {"measurement": "colony-forming capacity (CFC)", "setting": "[7]; 0.5 pM (so in the source), methylcellulose, 10 days, n = 3", "result": "abrogated the colony-forming capacity"}, {"measurement": "serial replating capacity", "setting": "[7]; 0.5 μM, three of the five AML cell lines", "result": "completely abrogated serial replating capacity"}, {"measurement": "potency in CFC and serial replating assays versus comparators", "setting": "[7]; AML cell lines", "result": "increased potency over RG7388 and all other p53- stapled peptide prototypes tested"}, {"measurement": "inhibition of clonogenicity versus RG7388", "setting": "[7]; all five AML cell lines", "result": "greater inhibition of clonogenicity compared to RG7388"}, {"measurement": "grade 3/4 thrombocytopenias", "setting": "[8]", "result": "no reported grade 3/4 thrombocytopenias"}, {"measurement": "cytotoxic activity", "setting": "[9]", "result": "potent activity against all five cell lines with WT p53"}, {"measurement": "apoptosis", "setting": "[10]; annexin V/DAPI, 24 hours, all five AML cell lines, n = 3", "result": "dose-dependent increase in apoptosis"}, {"measurement": "cell cycle", "setting": "[10]; propidium iodide staining, all p53 WT AML cell lines", "result": "induced cell cycle arrest"}, {"measurement": "p53 target gene expression (qRT-PCR)", "setting": "[11]; MOLM13, 24 hours of treatment, n = 3", "result": "up-regulated CDKN1A, MDM2, BAX, PUMA, and GADD45a in a dose-dependent manner"}, {"measurement": "p53, p21 and MDM2 protein", "setting": "[11]; Western blot, primary AML cells and AML cell lines expressing WT p53, not in p53 null AML cells", "result": "stabilized p53 and up-regulated its downstream targets p21 and MDM2 in p53 WT cells in a dose-dependent manner"}, {"measurement": "frequency of HSCs and progenitors versus control", "setting": "[12]", "result": "no significant differences"}, {"measurement": "thrombocytopenia (platelet counts)", "setting": "[12]; n = 10", "result": "did not show signs of thrombocytopenia"}, {"measurement": "neutrophils", "setting": "[12]; n = 10, within the normal range", "result": "only a modest reduction in neutrophils"}, {"measurement": "average median survival", "setting": "[13]; 20 mg/kg IV BIW", "result": 38, "unit": "days"}, {"measurement": "average median survival", "setting": "[13]; 20 mg/kg IV TIW", "result": 72, "unit": "days"}, {"measurement": "caspase-3/7 activity", "setting": "[14]", "result": "concentration- dependent increase"}, {"measurement": "p53 dependency of growth inhibition and apoptosis", "setting": "[15]", "result": "completely p53-dependent manner"}, {"measurement": "median survival", "setting": "[16]; 20 mg/kg IV BIW (group 2)", "result": 83, "unit": "days"}, {"measurement": "mice alive 300 days after treatment", "setting": "[16]; 20 mg/kg IV TIW (group 3)", "result": 40, "unit": "%"}, {"measurement": "median survival", "setting": "[16]; 20 mg/kg IV TIW (group 3)", "result": 151, "unit": "days"}, {"measurement": "average engraftment of human CD45 leukemic cells", "setting": "[16]; 20 mg/kg, after 5 weeks of treatment, mouse BM, FACS, vehicle 23.3%", "result": 0.00557, "unit": "%"}, {"measurement": "increase of median survival compared to the control", "setting": "[16]; 8 or 12 mg/kg IV BIW", "result": 5.5, "unit": "days"}, {"measurement": "human CD45 leukemic cells in the BM", "setting": "[16]; 8 or 12 mg/kg IV BIW, day 7 after the start of treatment", "result": "dose-dependent decrease in human CD45 leukemic cells"}, {"measurement": "cell proliferation", "setting": "[17]", "result": "no effect on cell proliferation"}, {"measurement": "thrombocytopenia on treatment", "setting": "[18]; 3.1 mg/kg IV once weekly, one patient", "result": "no grade 3 or 4 thrombocytopenia was observed"}, {"measurement": "circulating CD34+ leukemic blasts", "setting": "[18]; 3.1 mg/kg IV once weekly, weeks 2 and 3", "result": "less than 1%"}, {"measurement": "circulating CD34+ leukemic blasts", "setting": "[18]; 3.1 mg/kg IV once weekly, within 12 hours, initially 5 to 7%", "result": "1.5 to 2.5", "unit": "%"}, {"measurement": "p53 protein (intracellular FACS)", "setting": "[18]; 3.1 mg/kg IV, first administration", "result": "rapidly induced in CD34^+ leukemic blasts, but not in healthy lymphocytes"}, {"measurement": "sensitivity of OCI/AML3", "setting": "[19]; OCI/AML3, suspension culture", "result": "less sensitive"}, {"measurement": "cellular proliferation", "setting": "[19]; trypan blue exclusion, dose- and time-dependent, n = 3", "result": "inhibited cellular proliferation"}]}
{"smiles": "CN1CCN(c2ccc([N+](=O)[O-])c3no[n+]([O-])c23)CC1", "note": "[NSC-207895]", "values": [{"measurement": "expression of MDMX", "setting": "[20]", "result": "downregulated expression of MDMX"}]}
{"smiles": "COc1cc(C(=O)O)ccc1NC(=O)[C@@H]1N[C@@H](CC(C)(C)C)[C@](C#N)(c2ccc(Cl)cc2F)[C@H]1c1cccc(Cl)c1F", "note": "[RG7388]", "values": [{"measurement": "affinity for MDMX", "setting": "[21]", "result": "lack of affinity for MDMX"}, {"measurement": "binding to MDMX", "setting": "[22]", "result": "did not bind to MDMX at all"}, {"measurement": "wash-off t1/2 from MDM2-coated surface", "setting": "[23]", "result": "2 to 3", "unit": "min"}]}
{"smiles": "CCOc1cc(C(C)(C)C)ccc1C1=N[C@@](C)(c2ccc(Cl)cc2)[C@@](C)(c2ccc(Cl)cc2)N1C(=O)N1CCN(CCCS(C)(=O)=O)CC1", "note": "[RG7112]", "values": [{"measurement": "affinity for MDMX", "setting": "[21]", "result": "lack of affinity for MDMX"}]}
